Experimental data reported in patent US11078540B2, “Methods of diagnosing and treating cancer in patients having or developing resistance to a first cancer therapy” (DANA-FARBER CANCER INSTITUTE, INC., priority 2010, dated 2021).

Assays:
COT mRNA [1] = test: Quantitative RT-PCR of COT mRNA in lesion-matched biopsies of PLX4032-treated metastatic melanoma patients; type: in vivo, human; conditions: 3 patients with metastatic B-RAF^V600E melanoma, on-treatment vs pre-treatment biopsies
Text: Biopsied tumor material consisted of discarded and de-identified tissue that was obtained with informed consent and characterized under protocol 02-017 (paired samples, Massachusetts General Hospital) and 07-087 (unpaired sample, Dana-Farber Cancer Institute). For paired specimens, ‘on-treatment’ samples were collected 10-14 days after initiation of PLX4032 treatment (Table 6).
(§1) mRNA was extracted from cell lines and fresh-frozen tumors using the RNeasy kit (Qiagen). Total mRNA was used for subsequent reverse transcription using the SuperScript III First-Strand Synthesis SuperMix (Invitrogen) for cell lines and unpaired tumor samples, and the SuperScript VILO cDNA synthesis kit (Invitrogen) for paired frozen tumor samples. 5 μl of the RT reaction was used for quantitative PCR using SYBR Green PCR Master Mix and gene-specific primers, in triplicate, using an ABI 7300 Real Time PCR System. Primers used for detection are as follows: […]

B-RAF^V600E cell lines = test: Pharmacologic growth inhibition assays (WST1 viability, GI50, single-dose studies); type: cell-based, human; conditions: for cell growth, in combination with PLX4720: ectopic COT expression, 1 μM each, versus single-agent PLX4720 up to 10 μM
Experimental: Cultured cells were seeded into 96-well plates (3,000 cells per well) for all melanoma cell lines; 1,500 cells were seeded for A375. Twenty-four hours after seeding, serial dilutions of the relevant compound were prepared in DMSO added to cells, yielding final drug concentrations ranging from 100 μM to […], with the final volume of DMSO not exceeding 1%. Cells were incubated for 96 h following addition of drug. Cell viability was measured using the WST1 viability assay (Roche). Viability was calculated as a percentage of control (untreated cells) after background subtraction. A minimum of six replicates were performed for each cell line and drug combination. Data from growth-inhibition assays were modeled using a nonlinear regression curve fit with a sigmoid dose-response. […] Sigmoid-response curves that crossed the 50% inhibition point at or above 10 μM have GI50 values annotated as >10 μM. For single-dose studies, the identical protocol was followed, using a single dose of indicated drug (1 μM unless otherwise noted).

[2] = test system: pERK1/2 (T202/Y204), pMEK1/2 (S217/221); test: Immunoblots and immunoprecipitations of MAPK pathway proteins in treated cells; type: cell-based, human; conditions: for pERK expression, in combination with PLX4720: ectopic COT expression, 1 μM each, versus single-agent PLX4720 up to 10 μM
Experimental: Cells were washed twice with ice-cold PBS and lysed with 1% NP-40 buffer [150 mM NaCl, 50 mM Tris pH 7.5, 2 mM EDTA pH 8, 25 mM NaF and 1% NP-40] containing 2× protease inhibitors (Roche) and 1× Phosphatase Inhibitor Cocktails I and II (CalBioChem). Lysates were quantified (Bradford assay), normalized, reduced, denatured (95° C.) and resolved by SDS gel electrophoresis on 10% Tris/Glycine gels (Invitrogen). Protein was transferred to PVDF membranes and probed with primary antibodies recognizing pERK1/2 (T202/Y204), pMEK1/2 (S217/221), MEK1/2, MEK1, MEK2, C-RAF (rabbit host), pC-RAF (pS338) (Cell Signaling Technology; 1:1,000), V5-HRP (Invitrogen; (1:5,000), COT (1:500), B-RAF (1:2,000), Actin (1:1,000), Actin-HRP (1:1,000; Santa Cruz)), C-RAF (mouse host; 1:1,000; BD Transduction Labs), Vinculin (Sigma; 1:20,000), AXL (1:500; R&D Systems). After incubation with the appropriate secondary antibody (anti-rabbit, anti-mouse IgG, HRP-linked; 1:1,000 dilution, Cell Signaling Technology or anti-goat IgG, HRP-linked; 1:1,000 dilution; Santa Cruz), proteins were detected using chemiluminescence (Pierce). Immunoprecipitations were performed overnight at 4° C. in 1% NP-40 lysis buffer, as described above, at a concentration of 1 μg/μl total protein using an antibody recognizing C-RAF (1:50; Cell Signaling Technology). Antibody: antigen complexes were bound to Protein A agarose (25 μL, 50% slurry; Pierce) for 2 hrs. at 4° C. Beads were centrifuged and washed three times in lysis buffer and eluted and denatured (95° C.) in 2× reduced sample buffer (Invitrogen). Immunoblots were performed as above. Phospho-protein quantification was performed using NIH Image J.

A375 cells [3] = test: High throughput ORF screening: viability of A375 expressing the kinase ORF collection in 1 μM PLX4720 relative to untreated, normalized to MEK1DD (Cell Titer-Glo); type: cell-based, human
Experimental: A375 melanoma cells were plated in 384-well microtiter plates (500 cells per well). The following day, cells were spin-infected with the lentivirally-packaged kinase ORF library in the presence of 8 ug/ml polybrene. 48 hours post-infection, media was replaced with standard growth media (2 replicates), media containing 1 μM PLX4720 (2 replicates, 2 time points) or media containing 10 ug/ml blasticidin (2 replicates). After four days and 6 days, cell growth was assayed using Cell Titer-Glo (Promega) according to manufacturer instructions. The entire experiment was performed twice.
Raw luminescence values were imported into Microsoft Excel. Infection efficiency was determined by the percentage of duplicate-averaged raw luminescence in blasticidin selected cells relative to non-selected cells. ORFs with an infection efficiency of less than 0.70 were excluded from further analysis along with any ORF having a standard deviation of >15,000 raw luminescence units between duplicates. To identify ORFs whose expression affects proliferation, we compared the duplicate-averaged raw luminescence of individual ORFs against the average and standard deviation of all control-treated cells via the z-score, or standard score, below,
[formula] where x=average raw luminescence of a given ORF, μ=the mean raw luminescence of all ORFs and σ=the standard deviation of the raw luminescence of all wells. Any individual ORF with a z-score>+2 or <−2 was annotated as affecting proliferation and removed from final analysis. Differential proliferation was determined by the percentage of duplicate-averaged raw luminescence values in PLX4720 (1 μM) treated cells relative to untreated cells. […] MEK1^DD normalized differential proliferation for each individual ORF was averaged across two duplicate experiments, with two time points for each experiment (day 4 and day 6). A z-score was then generated, as described above for average MEK1^DD normalized differential proliferation. ORFs with a z-score of >2 were considered hits and were followed up in the secondary screen.

A375 cells [4] = test: Secondary screen: PLX4720 GI50 in A375 expressing candidate resistance ORFs (WST-1); type: cell-based, human; conditions: for GI50: Homo sapiens
Experimental: (§2) ORF-expressing lentivirus was added at a 1:10 dilution in the presence of 8 μg/ml polybrene, and centrifuged at 2250 RPM and 37° C. for 1 h. Following centrifugation, virus-containing media was changed to normal growth media and allowed to incubate for 18 h.

SKMEL28 cells = test: Secondary screen: PLX4720 GI50 in SKMEL28 expressing candidate resistance ORFs (WST-1); type: cell-based, human; conditions: for GI50: Homo sapiens
Experimental: as §2

COT mRNA [5] = test: Quantitative RT-PCR of COT mRNA in cell lines; type: cell-based, human; conditions: COT-expressing A375 cells, 1 μM PLX4720, 18 h
Experimental: as §1

COT = target: T1, COT (Homo sapiens, UniProt P41279); test: Inhibition of COT kinase activity in RPMI-7951 cells (MEK/ERK phosphorylation immunoblot); type: cell-based; conditions: 1 h treatment
T1 construct: endogenous in cells; host or cells: RPMI-7951 (ATCC), MAP3K8/COT-amplified, B-RAF V600E melanoma line
Experimental: Cells were washed twice with ice-cold PBS and lysed with 1% NP-40 buffer [150 mM NaCl, 50 mM Tris pH 7.5, 2 mM EDTA pH 8, 25 mM NaF and 1% NP-40] containing 2× protease inhibitors (Roche) and 1× Phosphatase Inhibitor Cocktails I and II (CalBioChem). Lysates were quantified (Bradford assay), normalized, reduced, denatured (95° C.) and resolved by SDS gel electrophoresis on 10% Tris/Glycine gels (Invitrogen). Protein was transferred to PVDF membranes and probed with primary antibodies recognizing pERK1/2 (T202/Y204), pMEK1/2 (S217/221), MEK1/2, MEK1, MEK2, C-RAF (rabbit host), pC-RAF (pS338) (Cell Signaling Technology; 1:1,000), V5-HRP (Invitrogen; (1:5,000), COT (1:500), B-RAF (1:2,000), Actin (1:1,000), Actin-HRP (1:1,000; Santa Cruz)), C-RAF (mouse host; 1:1,000; BD Transduction Labs), Vinculin (Sigma; 1:20,000), AXL (1:500; R&D Systems). After incubation with the appropriate secondary antibody (anti-rabbit, anti-mouse IgG, HRP-linked; 1:1,000 dilution, Cell Signaling Technology or anti-goat IgG, HRP-linked; 1:1,000 dilution; Santa Cruz), proteins were detected using chemiluminescence (Pierce). […] Immunoblots were performed as above. Phospho-protein quantification was performed using NIH Image J.
Adherent RPMI-7951 cells were washed twice with 1×PBS and incubated overnight in serum-free growth media.

CCCS(=O)(=O)Nc1ccc(F)c(C(=O)c2c[nH]c3ncc(-c4ccc(Cl)cc4)cc23)c1F [PLX4032]
COT mRNA expression concurrent with treatment (COT mRNA [1]): increased COT mRNA expression

Cn1cnc2c(F)c(Nc3ccc(Br)cc3Cl)c(C(=O)NOCCO)cc21 [AZD6244]
cell growth, in combination with PLX4720 (B-RAF^V600E cell lines): more effectively than did single-agent PLX4720 | pERK expression, in combination with PLX4720 [2]: more effectively than did single-agent PLX4720

O=C(NOCC1CC1)c1ccc(F)c(F)c1Nc1ccc(I)cc1Cl [CI-1040]
sensitivity to MEK inhibitor with ectopic COT expression (B-RAF^V600E cell lines; A375 and SKMEL28 cells ectopically expressing COT): decreased sensitivity | sensitivity of cell lines with aberrant MAP3K8/COT copy number/expression (B-RAF^V600E cell lines; B-RAF^V600E cell lines): insensitive | sensitivity to MEK inhibition (growth) (B-RAF^V600E cell lines; OUMS-23 and RPMI-7951 cell lines): refractory | cell growth, in combination with PLX4720 (B-RAF^V600E cell lines): more effectively than did single-agent PLX4720 | ERK phosphorylation ([2]; OUMS-23 and RPMI-7951, 1 μM CI-1040): sustained ERK phosphorylation | pERK expression, in combination with PLX4720 [2]: more effectively than did single-agent PLX4720

CCL4
Z-SCORE of average differential proliferation (1 μM PLX4720/control) (A375 cells [3]; A375 cells expressing the named ORF, relative to mean of all ORFs (44.26%, SD 7.19%)): −0.13 | AVERAGE differential proliferation (1 μM PLX4720/control), relative to MEK DD (A375 cells [3]; A375 cells expressing the named kinase-related ORF, 1 μM PLX4720 vs untreated control, normalized to MEK DD): 43.30%

CCCS(=O)(=O)Nc1ccc(F)c(C(=O)c2c[nH]c3ncc(Cl)cc23)c1F [PLX4720]
viability at 1 µM (A375 cells [3]; Homo sapiens, A-375, A375 expressing kinase ORF collection, 1 μM PLX4720, read-out: relative viability, mean of all ORFs, normalized to MEK1DD): 44.3% | Fold Change GI50 (A375 cells [4]; A375, Mock control, relative to MEK1): 0.91 fold | Fold Change GI50 (A375 cells [4]; A375 expressing AXL ORF, relative to MEK1): 5.98 fold | Fold Change GI50 (A375 cells [4]; A375 expressing CRKL ORF, relative to MEK1): 59.8 fold | Fold Change GI50 (A375 cells [4]; A375 expressing ERBB2 ORF, relative to MEK1): 7.95 fold | Fold Change GI50 (A375 cells [4]; A375 expressing FGR ORF, relative to MEK1): 59.8 fold | Fold Change GI50 (A375 cells [4]; A375 expressing MAP3K8 ORF, relative to MEK1): 598 fold | Fold Change GI50 (A375 cells [4]; A375 expressing MEK1, (−) control): 1 fold | Fold Change GI50 (A375 cells [4]; A375 expressing MEK DD, (+) control, relative to MEK1): 28 fold | Fold Change GI50 (A375 cells [4]; A375 expressing PAK3 ORF, relative to MEK1): 2.95 fold | Fold Change GI50 (A375 cells [4]; A375 expressing PRKCE ORF, relative to MEK1): 26.4 fold | Fold Change GI50 (A375 cells [4]; A375 expressing PRKCH ORF, relative to MEK1): 24.7 fold | Fold Change GI50 (A375 cells [4]; A375 expressing RAF1 ORF, relative to MEK1): 598 fold | GI50 (A375 cells [4]; A-375, A375, Mock control): 153 nM | GI50 (A375 cells [4]; A-375, A375 expressing AXL ORF): 1000 nM | GI50 (A375 cells [4]; A-375, A375 expressing CRKL ORF): > 10000 nM | GI50 (A375 cells [4]; A-375, A375 expressing ERBB2 ORF): 1330 nM | GI50 (A375 cells [4]; A-375, A375 expressing FGR ORF): > 10000 nM | GI50 (A375 cells [4]; A-375, A375 expressing MAP3K8 ORF): > 100000 nM | GI50 (A375 cells [4]; A-375, A375 expressing MEK1, (−) control): 167 nM | GI50 (A375 cells [4]; A-375, A375 expressing MEK DD, (+) control): 4800 nM | GI50 (A375 cells [4]; A-375, A375 expressing PAK3 ORF): 493 nM | GI50 (A375 cells [4]; A-375, A375 expressing PRKCE ORF): 4410 nM | GI50 (A375 cells [4]; A-375, A375 expressing PRKCH ORF): 4140 nM | GI50 (A375 cells [4]; A-375, A375 expressing RAF1 ORF): ≥ 100000 nM | shift of the PLX4720 GI50 (A375 cells [4]; MAP3K8 (COT/Tpl2) and RAF1 (C-RAF) ORFs, in A375 and SKMEL28): 10-600 fold | GI50 (SKMEL28 cells; SK-MEL-28, SKMEL28, Mock control): 529 nM | GI50 (SKMEL28 cells; SK-MEL-28, SKMEL28 expressing AXL ORF): 1180 nM | GI50 (SKMEL28 cells; SK-MEL-28, SKMEL28 expressing CRKL ORF): 9700 nM | GI50 (SKMEL28 cells; SK-MEL-28, SKMEL28 expressing ERBB2 ORF): 1000 nM | GI50 (SKMEL28 cells; SK-MEL-28, SKMEL28 expressing FGR ORF): 5000 nM | GI50 (SKMEL28 cells; SK-MEL-28, SKMEL28 expressing MAP3K8 ORF): > 100000 nM | GI50 (SKMEL28 cells; SK-MEL-28, SKMEL28 expressing MEK1, (−) control): 1000 nM | GI50 (SKMEL28 cells; SK-MEL-28, SKMEL28 expressing MEK DD, (+) control): 8290 nM | GI50 (SKMEL28 cells; SK-MEL-28, SKMEL28 expressing PAK3 ORF): 904 nM | GI50 (SKMEL28 cells; SK-MEL-28, SKMEL28 expressing PRKCE ORF): 1910 nM | GI50 (SKMEL28 cells; SK-MEL-28, SKMEL28 expressing PRKCH ORF): 2260 nM | GI50 (SKMEL28 cells; SK-MEL-28, SKMEL28 expressing RAF1 ORF): ≥ 10000 nM | Fold Change GI50 (SKMEL28 cells; SKMEL28, Mock control, relative to MEK1): 1.89 fold | Fold Change GI50 (SKMEL28 cells; SKMEL28 expressing AXL ORF, relative to MEK1): 1.18 fold | Fold Change GI50 (SKMEL28 cells; SKMEL28 expressing CRKL ORF, relative to MEK1): 9.7 fold | Fold Change GI50 (SKMEL28 cells; SKMEL28 expressing ERBB2 ORF, relative to MEK1): 1 fold | Fold Change GI50 (SKMEL28 cells; SKMEL28 expressing FGR ORF, relative to MEK1): 5 fold | Fold Change GI50 (SKMEL28 cells; SKMEL28 expressing MAP3K8 ORF, relative to MEK1): ~100 fold | Fold Change GI50 (SKMEL28 cells; SKMEL28 expressing MEK1, (−) control): 1 fold | Fold Change GI50 (SKMEL28 cells; SKMEL28 expressing MEK DD, (+) control, relative to MEK1): 8.29 fold | Fold Change GI50 (SKMEL28 cells; SKMEL28 expressing PAK3 ORF, relative to MEK1): 0.9041 fold | Fold Change GI50 (SKMEL28 cells; SKMEL28 expressing PRKCE ORF, relative to MEK1): 1.91 fold | Fold Change GI50 (SKMEL28 cells; SKMEL28 expressing PRKCH ORF, relative to MEK1): 2.26 fold | Fold Change GI50 (SKMEL28 cells; SKMEL28 expressing RAF1 ORF, relative to MEK1): ≥10 fold | GI50 (B-RAF^V600E cell lines; Homo sapiens, OUMS-23, RPMI-7951 and M307 (COT-expressing B-RAF^V600E cell lines)): 8000 to 10000 nM | endogenous C-RAF:B-RAF heterodimers ([2]; A375 cells, immunoprecipitated C-RAF, 1 μM PLX4720, 18 hr): measurable and inducible | COT protein ([2]; COT-expressing A375 cells): dose-dependent increase | ERK phosphorylation in the context of B-RAF inhibition ([2]; OUMS-23, RPMI-7951 and M307): sustained ERK phosphorylation | phosphorylation of ERK/MEK ([2]; OUMS-23, across a dose range of PLX4720): constitutive phosphorylation | ectopic COT mRNA levels (COT mRNA [5]): without affecting

CN(c1cccnc1)c1cc2c(Nc3ccc(F)c(Cl)c3)c(C#N)cnc2cn1 [small molecule COT kinase inhibitor, 4-(3-Chloro-4-fluorophenylamino)-6-(pyridin-3-yl-methylamino)-3-cyano-[1,7]-naphthyridine]
MEK and ERK phosphorylation (COT): dose-dependent suppression
